Measured values taken from US4345938A, “Herbicidal 2-haloacetanilides” (Monsanto Company, priority 1980, dated 1982).
Read-outs that look alike come from different tables or passages of the source.

Tests used:
Sagittaria trifolia = test: Field transplant rice test, applied 9 DAT, ST; format: in vivo; settings: 216 h, read-out: Percent Inhibition, ST; for inhibition at 375 g/ha: 0.375 Kg/Ha; for inhibition at 750 g/ha: 0.75 Kg/Ha; for inhibition at 1500 g/ha: 1.5 Kg/Ha; for inhibition at 3000 g/ha: 3.0 Kg/Ha
Method: (§1) The test data in Table III for all compounds was obtained under identical test conditions. The weeds used in the tests herein have the following abbreviations in the tables: Echinochloa crus-galli (EC), Monochloria vaginalis (MV), Cyperus Serotinus (CS), Eleocharis Kuroguwai (EK) and Sagittaria trifolia (ST).
(§2) In further comparative tests, a preferred compound of this invention (Example 1) was tested in the field with prior art Compounds A-D. These tests were conducted under conditions reflecting herbicide application times generally favorable to all herbicides in the test. The timing of application of herbicides to transplant rice is very important, whether, as in some instances, prior to transplanting the rice; in other instances, at the time of transplanting or else after transplanting. Application times are conventionally referred to as "days before transplant" (DBT) or "days after transplant" ("DAT"). The field test data in Table IV was obtained from a test in which the herbicides were applied at the time of transplant, i.e., "0 DAT", with observations being made weekly up to six weeks after transplant ("WAT") beginning at two weeks after transplant; for illustrative and representative purposes, only the early, middle and late period observations, i.e., 2 WAT, 4 WAT and 6 WAT, are shown in Table IV. The data in Table IV is for rates of application common to all herbicides in the test, i.e., from 3.0 kg/ha (2.67 lb/A) down to 0.375 kg/ha (0.34 lb/A). All herbicides were applied at their actual or expected use rates, i.e., as granules containing 2.5% by weight herbicide for the compound of Example 1, Compounds B, C and D and 5.0% by weight for Compound A.
In Table V are presented field data showing the relative performance of the compound of Example 1 and Compounds A-D applied 9 DAT, with observations being made weekly from 3 WAT to 7 WAT; again, for illustrative and representative purposes, only the early, middle and late period observations are reported in Table V, the herbicide rates and concentrations of active ingredients the same as is shown in Table IV.

Monochoria vaginalis = test: Field transplant rice test, applied 0 DAT, MV; format: in vivo; settings: Pontederia vaginalis, 0 h, read-out: Percent Inhibition, MV; for inhibition at 375 g/ha: 0.375 Kg/Ha; for inhibition at 750 g/ha: 0.75 Kg/Ha; for inhibition at 1500 g/ha: 1.5 Kg/Ha; for inhibition at 3000 g/ha: 3.0 Kg/Ha
Method: as §1, §2

Row | SMILES | inhibition at 375 g/ha (Sagittaria trifolia; 3 WAT) | inhibition at 375 g/ha (Sagittaria trifolia; 5 WAT) | inhibition at 375 g/ha (Sagittaria trifolia; 7 WAT) | inhibition at 750 g/ha (Sagittaria trifolia; 3 WAT) | inhibition at 750 g/ha (Sagittaria trifolia; 5 WAT) | inhibition at 750 g/ha (Sagittaria trifolia; 7 WAT) | inhibition at 1500 g/ha (Sagittaria trifolia; 3 WAT) | inhibition at 1500 g/ha (Sagittaria trifolia; 5 WAT) | inhibition at 1500 g/ha (Sagittaria trifolia; 7 WAT) | inhibition at 3000 g/ha (Sagittaria trifolia; 3 WAT) | inhibition at 3000 g/ha (Sagittaria trifolia; 5 WAT) | inhibition at 3000 g/ha (Sagittaria trifolia; 7 WAT) | inhibition at 375 g/ha (Monochoria vaginalis; 2 WAT) | inhibition at 375 g/ha (Monochoria vaginalis; 4 WAT) | inhibition at 375 g/ha (Monochoria vaginalis; 6 WAT) | inhibition at 750 g/ha (Monochoria vaginalis; 2 WAT) | inhibition at 750 g/ha (Monochoria vaginalis; 4 WAT) | inhibition at 750 g/ha (Monochoria vaginalis; 6 WAT) | inhibition at 1500 g/ha (Monochoria vaginalis; 2 WAT) | inhibition at 1500 g/ha (Monochoria vaginalis; 4 WAT) | also measured
1 | CCCCOCCN(C(=O)CCl)c1c(CC)cccc1CC [Compound B, 2',6'-diethyl-N-(n-butoxyethyl)-2-chloroacetanilide] | 5% | 2% | 5% | 38% | 12% | 10% | 40% | 25% | 13% | 42% | 25% | 12% | 97% | 90% | 80% | 95% | 98% | 100% | 98% | 100% | inhibition at 1500 g/ha (Monochoria vaginalis; 6 WAT): 100%; inhibition at 3000 g/ha (Monochoria vaginalis; 2 WAT): 100%; inhibition at 3000 g/ha (Monochoria vaginalis; 4 WAT): 100%; inhibition at 3000 g/ha (Monochoria vaginalis; 6 WAT): 97%
2 | CCCCOCN(C(=O)CCl)c1c(C)cccc1C(C)(C)C [Compound C, 2'-methyl-6'-tert-butyl-N-(n-butoxymethyl)-2-chloroacetanilide] | 47% | 10% | 2% | 32% | 8% | 0% | 48% | 17% | 7% | 30% | 13% | 3% | 100% | 100% | 97% | 100% | 100% | 100% | 100% | 100% | inhibition at 1500 g/ha (Monochoria vaginalis; 6 WAT): 100%; inhibition at 3000 g/ha (Monochoria vaginalis; 2 WAT): 100%; inhibition at 3000 g/ha (Monochoria vaginalis; 4 WAT): 100%; inhibition at 3000 g/ha (Monochoria vaginalis; 6 WAT): 100%
3 | CCCOCCN(C(=O)CCl)c1c(CC)cccc1CC [Compound D, 2',6'-diethyl-N-(n-propoxyethyl)-2-chloroacetanilide] | 45% | 12% | 7% | 42% | 25% | 18% | 43% | 25% | 22% | 73% | 60% | 52% | 90% | 95% | 83% | 100% | 99% | 100% | 98% | 100% | inhibition at 1500 g/ha (Monochoria vaginalis; 6 WAT): 100%; inhibition at 3000 g/ha (Monochoria vaginalis; 2 WAT): 100%; inhibition at 3000 g/ha (Monochoria vaginalis; 4 WAT): 98%; inhibition at 3000 g/ha (Monochoria vaginalis; 6 WAT): 98%
